Results taken from PMC8359310 (British Journal of Clinical Pharmacology, 2020).

Experiment: Clinical DDI study: plasma pharmacokinetics of probe drugs
Details: for AUC(0-inf): AUCinf; for AUC(0-t): AUClast; for Tmax: median (min, max); for AUCinf geo‐mean ratio (90% CI) / AUClast geo‐mean ratio (90% CI) / Cmax geo‐mean ratio (90% CI): probe drug + capmatinib vs probe drug alone
[1] = human, in vivo, adjusted geo‐mean, probe drug + capmatinib, linear mixed effects model
[2] = human, in vivo, adjusted geo‐mean, probe drug alone, linear mixed effects model
[3] = human, in vivo, geo‐mean (geo‐CV%), probe drug + capmatinib 400 mg twice daily, Day 22, plasma
[4] = human, in vivo, geo‐mean (geo‐CV%), probe drug alone, Day 1, plasma

Compound: CC(C)c1nc(N(C)S(C)(=O)=O)nc(-c2ccc(F)cc2)c1/C=C/[C@@H](O)C[C@@H](O)CC(=O)O [rosuvastatin]
- increase of AUCinf on coadministration of capmatinib (compared to probe drug alone): 108%
- increase of AUClast on coadministration of capmatinib (compared to probe drug alone): 103%
- increase of Cmax on coadministration of capmatinib (compared to probe drug alone): 204%
- AUC(0-inf) [1]: 156 ng·h/mL
- AUC(0-inf) [2]: 75.2 ng·h/mL
- AUC(0-t) [1]: 144 ng·h/mL
- AUC(0-t) [2]: 71 ng·h/mL
- AUC(0-t) [3]: 144 ng·h/mL
- AUC(0-t) [4]: 71 ng·h/mL
- Cmax [1]: 23.5 ng/mL
- Cmax [2]: 7.72 ng/mL
- Cmax [3]: 23.5 ng/mL
- Cmax [4]: 7.72 ng/mL
- half-life (human, in vivo, T1/2, geo‐mean (geo‐CV%), probe drug alone, Day 1): 22 h
- Tmax (human, in vivo, probe drug + capmatinib 400 mg twice daily, Day 22): 1.55 h
- Tmax (human, in vivo, probe drug alone, Day 1): 2.04 h
- AUCinf geo‐mean ratio (90% CI): 2.08 (1.56, 2.76)
- AUClast geo‐mean ratio (90% CI): 2.03 (1.61, 2.56)
- Cmax geo‐mean ratio (90% CI): 3.04 (2.36, 3.92)
- AUCinf geo‐mean ratio (90% CI) (listed as Rosuvastatin): 2.08 (1.56–2.76)
- AUClast geo‐mean ratio (90% CI) (listed as Rosuvastatin): 2.03 (1.61–2.56)
- Cmax geo‐mean ratio (90% CI) (listed as Rosuvastatin): 3.04 (2.36–3.92)
